How the values were obtained:
[1] = system: postjunctional alpha2-adrenoceptors; conditions: Brown 1988; cited from earlier work
[2] = system: postjunctional alpha1-adrenoceptors; conditions: Brown 1988; cited from earlier work
[3] = Safety study: topical application to entire scalp with BP, HR and EKG holter monitoring; assay type: in vivo, human; conditions: topical application across the entire scalp, synephrine at up to 6 g
Method: Use of weak acting A1AR agonists or agonists having a low affinity for all other adrenergic receptors, as described herein, can provide methods of treatment and/or prophylaxis that are a substantial improvement over conventional methods of use. Improvements can include enhancements in efficacy and/or safety. For example, safety tests were performed with embodiments of the composition using electrocardiogram (EKG) and blood pressure/heart rate (BP/HR) monitoring. […] Details of the study are described in the examples below.
A study was conducted to determine the safety of a topical solution containing 37% synephrine HCl (the composition of formula 01). 10 mL of the topical solution was applied to the entire scalp and rubbed thoroughly at a base line. An additional 10 mL was applied after 2 hours. Blood pressure (BP), heart rate (HR) and EKG measurements were taken using a wearable holter monitor.
In total, 40 female subjects ages 18-65 in good health were enrolled. 30 of the subjects received the active solution and 10 received the placebo (vehicle only). To evaluate the effect of the composition on systemic hemodynamic parameters, a holter monitor was placed on each subject. At baseline, BP and HR were recorded. BP, HR, and EKG data were collected over a 24-hour period via the holter monitor. […] EKG parameters (e.g., ST segments, arrhythmias, etc.) were normal throughout the 24 hour period.

A1AR [4] = conditions: weak A1AR agonist; Brown 1988; cited from earlier work
A1AR [5] = conditions: Ma 2010, Hibino 2009; cited from earlier work
[6] = oral form; Stohs 2011; cited from earlier work

| Compound | potency of the (+) form relative to the (−) form [1] | potency of the (+) form relative to the (−) form [2] | adverse events (EKG and BP/HR monitoring) [3] | potency less than that of phenylephrine (A1AR [4]) | A1AR binding affinity (A1AR [5]) | cardiac or hemodynamic changes [6] |
| --- | --- | --- | --- | --- | --- | --- |
| CNC[C@@H](O)c1ccc(O)cc1 [S-(+)-synephrine] | one to two orders of magnitude less | one to two orders of magnitude less |  |  |  |  |
| CNCC(O)c1ccc(O)cc1 (stereo not drawn) [synephrine, p-synephrine] |  |  | No adverse events | approximately 150 fold | low | not been shown to induce significant cardiac or hemodynamic changes |
